{"source": "patent US20180355390A1", "about": "“Method to produce L-methionine by a fermentative production” (Evonik Degussa GmbH, priority 2016, published 2018)", "key": {"[1]": {"assay": "physchem", "details": "Residual solubility L-Methionine", "procedure": "The amount of product in the fermentation medium or in the different downstream process fluxes such as supernatant, permeate or mother liquors of crystallization can be determined using a number of methods known in the art, for example, high performance liquid chromatography (HPLC) or gas chromatography (GC). For example the quantity of methionine obtained in the medium is measured by HPLC after OPA/FMOC derivatization using L-methionine (Fluka, Ref 64319) as a standard.\nDifferent solvents were assayed on the fermentation concentrated supernatant issued from step ii) with the same ratio of 70% (solvent/(methionine containing fraction+solvent), in weight)."}, "[2]": {"assay": "physchem", "procedure": "The methionine solubility at 35° C. is approximately 70 g/L. If the solution is concentrated to approximately 250 g/L, under a vacuum ensuring a temperature of 35° C., the solid methionine recovery yield is >70%. Under these conditions, and by virtue of the removal of the soluble impurities, the solid methionine crystallizes in the form of spongy spheres which are easy to separate from the mother liquors.\nThe fermentation supernatant issued from step ii) was concentrated to approximately 250 g·L^−1 and ethanol has been added at different proportions 0%, 30% and 70% (corresponding to the ratio solvent/(methionine containing fraction+solvent) in weight). The theoretical yield of recovery has been determined in function of ethanol content."}}}
{"smiles": "CSCC[C@H](N)C(=O)O", "note": "[L-methionine]", "values": [{"measurement": "solubility", "setting": "[1]; concentrated fermentation supernatant with added solvent, 4 °C, aqueous with cosolvent or surfactant or cyclodextrin, Ethanol, ratio 70% by weight", "result": "4000 to 5000", "unit": "µg/mL"}, {"measurement": "solubility", "setting": "[1]; concentrated fermentation supernatant with added solvent, 4 °C, aqueous with cosolvent or surfactant or cyclodextrin, Isopropanol, ratio 70% by weight", "result": "4000 to 5000", "unit": "µg/mL"}, {"measurement": "solubility", "setting": "[1]; concentrated fermentation supernatant with added solvent, 4 °C, aqueous with cosolvent or surfactant or cyclodextrin, Methanol, ratio 70% by weight", "result": "5000 to 6000", "unit": "µg/mL"}, {"measurement": "solubility", "setting": "[1]; concentrated fermentation supernatant with added solvent, aqueous with cosolvent or surfactant or cyclodextrin, 2-Butanone, ratio 70% by weight, room temperature", "result": "> 15000", "unit": "µg/mL"}, {"measurement": "solubility", "setting": "[1]; concentrated fermentation supernatant with added solvent, aqueous with cosolvent or surfactant or cyclodextrin, Acetonitrile, ratio 70% by weight, room temperature", "result": "5500 to 6500", "unit": "µg/mL"}, {"measurement": "solubility", "setting": "[1]; concentrated fermentation supernatant with added solvent, aqueous with cosolvent or surfactant or cyclodextrin, Ethanol, ratio 70% by weight, room temperature", "result": "5000 to 6000", "unit": "µg/mL"}, {"measurement": "solubility", "setting": "[1]; concentrated fermentation supernatant with added solvent, aqueous with cosolvent or surfactant or cyclodextrin, Isopropanol, ratio 70% by weight, room temperature", "result": "5000 to 6000", "unit": "µg/mL"}, {"measurement": "solubility", "setting": "[1]; concentrated fermentation supernatant with added solvent, aqueous with cosolvent or surfactant or cyclodextrin, Methanol, ratio 70% by weight, room temperature", "result": "7000 to 8000", "unit": "µg/mL"}, {"measurement": "solubility", "setting": "[1]; concentrated fermentation supernatant, plasma or biological fluid, no solvent (Reference), room temperature", "result": 65000, "unit": "µg/mL"}, {"measurement": "solubility", "setting": "[2]; 35 °C", "result": "~70000", "unit": "µg/mL"}, {"measurement": "solubility", "setting": "[2]; 37 °C", "result": "~70000", "unit": "µg/mL"}]}
